Data from patent publication US11214803B2, “Modulators of YAP1 expression” (Ionis Pharmaceuticals, Inc., priority 2019, dated 2022).
Strand notation (5' to 3'): a small letter for the sugar, then the base; units joined by * are phosphorothioate-linked, units joined directly phosphodiester-linked; [ ] holds rarer units or linkages, { } end groups; capitals alone tell only the bases. e = 2'-O-(2-methoxyethyl) (MOE); k = constrained ethyl (cEt); [5mC] = 5-methylcytosine; d = 2'-deoxy (DNA); m = 2'-O-methyl

System: Yap1 mRNA
Test: Antisense inhibition of human Yap1 in SNU-449 cells by modified oligonucleotides, single dose (Example 5, RTS36584)
Assay type: cell-based
Summary of the method: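 Each modified oligonucleotide is applied by free uptake to SNU-449 cultures at 2,000 nM, and total RNA is harvested around 48 h later. Yap1 transcript, quantified with the RTS36584 set and corrected for RIBOGREEN RNA content, is given as % UTC. Asterisks mark sequences overlapping the amplicon.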

[1] = Table 42 (separate experiment), SNU-449 cells, 10,000 cells per well, free uptake, 2,000 nM modified oligonucleotide, approximately 48 hours, RTS36584, normalized to RIBOGREEN, Yap1 mRNA relative to untreated control cells
[2] = Table 52, Yap1 mRNA, modified oligonucleotides targeting SEQ ID NO: 1 and 2
[3] = Table 50, Yap1 mRNA remaining as percent of untreated control (UT), SNU-449 cells, single dose
[4] = Table 43 experiment, SNU-449 cells, 10,000 cells per well, free uptake, 2,000 nM, approximately 48 hours, RTS36584, Yap1 mRNA normalized to RIBOGREEN, relative to untreated control cells
[5] = Table 39, SNU-449 cells, 10,000 cells per well, free uptake, 2,000 nM oligonucleotide, approx. 48 hours, RTS36584, normalized to RIBOGREEN, Yap1 mRNA relative to untreated control
[6] = Table 45, Yap1 mRNA as percent of untreated control, SNU-449 cells, single dose
[7] = Table 40 (separate experiment), SNU-449 cells, 10,000 cells per well, free uptake, 2,000 nM oligonucleotide, approx. 48 hours, RTS36584, normalized to RIBOGREEN, Yap1 mRNA relative to untreated control
[8] = Yap1 mRNA, percent of untreated control, modified oligonucleotides targeting SEQ ID NO: 1 and 2, Table 47
[9] = Table 41, SNU-449 cells, 10,000 cells per well, free uptake, 2,000 nM modified oligonucleotide, approximately 48 hours, RTS36584, normalized to RIBOGREEN, Yap1 mRNA relative to untreated control cells
[10] = Table 44 experiment, SNU-449 cells, 10,000 cells per well, free uptake, 2,000 nM, approximately 48 hours, RTS36584, Yap1 mRNA normalized to RIBOGREEN, relative to untreated control cells
[11] = Table 46, Yap1 mRNA as percent of untreated control, SNU-449 cells, single dose
[12] = Table 51, Yap1 mRNA remaining as percent of untreated control (UT), SNU-449 cells, single dose
[13] = Table 48, Yap1 mRNA level relative to untreated control, modified oligonucleotides targeting SEQ ID NO.: 1 and 2
[14] = Table 49, Yap1 mRNA level relative to untreated control, modified oligonucleotides targeting SEQ ID NO.: 1 and 2

Substance: 1198226 (kG*k[5mC]*dA*d[5mC]*dT*dT*dT*dT*dA*d[5mC]*dA*eT*eT*eA*kG*kG) [Compound 1198226]
- YAP1 (% UTC) [1]: 23 % UTC

Substance: 1200815 (k[5mC]*kA*k[5mC]*dT*dT*mU*dT*dA*d[5mC]*dA*dT*dT*dA*kG*kG*kA; antisense) [Compound 1200815]
- YAP1 (% UT) [2]: 55 % UT

Substance: 1198618 (antisense kA*kA*k[5mC]*dT*dT*dT*dA*dA*dA*dG*dT*dG*kT*kA*kT*eG) [Compound 1198618]
- YAP1 (% UT) [3]: 74 % UT

Substance: 1095454 (antisense k[5mC]*kT*kG*dA*dG*dG*dT*dA*dT*dA*dA*d[5mC]*kT*kG*kG*eG) [Compound 1095454]
- YAP1 (% UT) [3]: 47 % UT

Substance: 1198280 (kA*k[5mC]*dT*dA*dA*dG*dT*dA*dA*dG*dG*eT*eT*eT*k[5mC]*k[5mC]; antisense) [Compound 1198280]
- YAP1 (% UTC) [4]: 40 % UTC

Substance: 1198600 (antisense kG*kA*k[5mC]*dA*dA*d[5mC]*dT*d[5mC]*dT*dT*dA*dT*kA*kT*kG*eG) [Compound 1198600]
- YAP1 (% UT) [3]: 72 % UT

Substance: 1198411 (kA*dG*dG*dA*dT*dG*d[5mC]*dA*dT*dG*dG*kT*eT*kT*eT*kT; antisense) [Compound 1198411]
- YAP1 (% UTC) [5]: 33 % UTC

Substance: 1198248 (kA*kT*dA*dT*dG*dG*dT*dT*dT*dT*dG*eT*eG*eT*kG*kT; antisense) [Compound 1198248]
- YAP1 (% UTC) [4]: 64 % UTC

Substance: 1198626 (kA*kG*kA*d[5mC]*dT*dA*dA*dG*dT*dA*dA*dG*kG*kT*kT*eT; antisense) [Compound 1198626]
- YAP1 (% UT) [3]: 99 % UT

Substance: 1198908 (kT*kA*dT*dA*dA*d[5mC]*dT*dG*dG*dG*d[5mC]*kA*dA*kA*dT*kT; antisense) [Compound 1198908]
- YAP1 (% UTC) [6]: 124 % UTC

Substance: 1198785 (antisense kT*eT*kT*dA*dT*dG*dT*dA*dA*dT*dA*dT*eT*eG*k[5mC]*kA) [Compound 1198785]
- YAP1 (% UTC) [7]: 86 % UTC

Substance: 1009326 (kT*kA*kT*dT*dA*dG*dA*dG*dT*dA*dT*dG*dT*kG*kG*k[5mC]; antisense) [Compound 1009326]
- YAP1 (% UT) [8]: 10 % UT

Substance: 1198397 (k[5mC]*dA*d[5mC]*dT*dT*dT*dT*dA*d[5mC]*dA*dT*kT*eA*kG*eG*kA; antisense) [Compound 1198397]
- YAP1 (% UTC) [5]: 17 % UTC

Substance: 1198640 (kT*kT*dA*dG*dA*dG*dT*dA*dT*dG*dT*dG*kG*e[5mC]*kA*eA; antisense) [Compound 1198640]
- YAP1 (% UTC) [9]: 26 % UTC

Substance: 1198514 (kG*kA*d[5mC]*dA*dA*d[5mC]*dT*d[5mC]*dT*dT*dA*eT*kA*eT*kG*eG; antisense) [Compound 1198514]
- YAP1 (% UTC) [10]: 53 % UTC

Substance: 1198408 (kG*dT*dG*d[5mC]*dT*dT*dT*dG*dG*dA*dA*kG*eA*kT*e[5mC]*kT; antisense) [Compound 1198408]
- YAP1 (% UTC) [5]: 41 % UTC

Substance: 1198272 (kT*kT*dT*dA*dA*dA*dG*dT*dG*dT*dA*eT*eG*eT*k[5mC]*kA; antisense) [Compound 1198272]
- YAP1 (% UTC) [4]: 37 % UTC

Substance: 1198853 (kA*kT*dT*d[5mC]*dA*dG*dA*dT*dT*dT*dA*kG*eG*kA*eT*kG; antisense) [Compound 1198853]
- YAP1 (% UT) [11]: 105 % UT

Substance: 1198957 (kT*kT*dT*dA*dT*dG*dT*dA*dA*dT*dA*kT*dT*kG*d[5mC]*kA; antisense) [Compound 1198957]
- YAP1 (% UTC) [6]: 81 % UTC

Substance: 1200847 (kA*kT*kT*dG*d[5mC]*mA*dA*dT*d[5mC]*dT*dG*dT*d[5mC]*kT*kG*kA; antisense) [Compound 1200847]
- YAP1 (% UT) [2]: 54 % UT

Substance: 1197259 (kA*kT*kA*dT*mG*dG*dT*dT*dT*dT*dG*dT*dG*kT*kG*kT) [Compound 1197259]
- YAP1 (% UT) [12]: 59 % UT

Substance: 1198629 (kA*kT*dT*dG*dT*d[5mC]*dT*d[5mC]*dA*dT*dG*d[5mC]*k[5mC]*eT*kT*eA; antisense) [Compound 1198629]
- YAP1 (% UTC) [9]: 22 % UTC

Substance: 1198681 (antisense T_{ks}C_{ks}T_{ds}T_{ds}A_{ds}T_{ds}A_{ds}T_{ds}G_{ds}G_{ds}T_{ds}T_{ds}T_{ks}T_{es}G_{ks}T_{e}; as printed in the source, key not given here) [Compound 1198681]
- YAP1 (% UTC) [1]: 54 % UTC

Substance: 1197183 (antisense kA*k[5mC]*kT*dT*dT*dT*dA*d[5mC]*dA*dT*dT*dA*dG*kG*kA*kA) [Compound 1197183]
- YAP1 (% UT) [8]: 41 % UT

Substance: 1198801 (antisense kG*eA*k[5mC]*dT*dA*dA*dG*dT*dA*dA*dG*dG*eT*eT*kT*k[5mC]) [Compound 1198801]
- YAP1 (% UTC) [7]: 47 % UTC

Substance: 1198905 (kA*kT*dA*dT*dT*dA*dG*dA*dG*dT*dA*kT*dG*kT*dG*kG; antisense) [Compound 1198905]
- YAP1 (% UTC) [10]: 5 % UTC

Substance: 1198428 (kG*dA*d[5mC]*dA*dA*d[5mC]*dT*d[5mC]*dT*dT*dA*kT*eA*kT*eG*kG; antisense) [Compound 1198428]
- YAP1 (% UTC) [7]: 62 % UTC

Substance: 1095491 (antisense kA*k[5mC]*dT*dG*dA*dG*dG*dT*dA*dT*dA*kA*d[5mC]*kT*dG*kG) [Compound 1095491]
- YAP1 (% UTC) [6]: 65 % UTC

Substance: 1198383 (kA*dT*dT*dA*dG*dA*dG*dT*dA*dT*dG*kT*eG*kG*e[5mC]*kA; antisense) [Compound 1198383]
- YAP1 (% UTC) [5]: 31 % UTC

Substance: 1198478 (antisense kA*kA*d[5mC]*dA*d[5mC]*dT*dG*dA*dG*dG*dT*eA*kT*eA*kA*e[5mC]) [Compound 1198478]
- YAP1 (% UTC) [10]: 60 % UTC

Substance: 1200795 (kT*kA*kG*dA*dG*mU*dA*dT*dG*dT*dG*dG*d[5mC]*kA*kA*kT; antisense) [Compound 1200795]
- YAP1 (% UT) [12]: 30 % UT

Substance: 1198300 (kT*kA*kT*dA*dT*dT*dA*dG*dA*dG*dT*dA*kT*eG*kT*eG; antisense) [Compound 1198300]
- YAP1 (% UT) [13]: 60 % UT

Substance: 1009396 (k[5mC]*kA*k[5mC]*dT*dG*dA*dG*dG*dT*dA*dT*dA*dA*k[5mC]*kT*kG; antisense) [Compound 1009396]
- YAP1 (% UT) [13]: 41 % UT

Substance: 1198426 (kA*dA*d[5mC]*dT*d[5mC]*dT*dT*dA*dT*dA*dT*kG*eG*kT*eT*kT; antisense) [Compound 1198426]
- YAP1 (% UTC) [7]: 111 % UTC

Substance: 1198304 (kA*kG*kG*dT*dA*dT*dA*dA*d[5mC]*dT*dG*dG*kG*e[5mC]*kA*eA; antisense) [Compound 1198304]
- YAP1 (% UT) [14]: 33 % UT

Substance: 1198810 (antisense kT*kG*dG*dA*dA*dA*dT*dT*dG*dT*d[5mC]*kT*e[5mC]*kA*eT*kG) [Compound 1198810]
- YAP1 (% UT) [11]: 50 % UT

Substance: 1198866 (kT*kA*dA*dT*dA*dT*dT*dG*d[5mC]*dA*dA*kT*e[5mC]*kT*eG*kT; antisense) [Compound 1198866]
- YAP1 (% UT) [11]: 60 % UT

Substance: 1198419 (kA*dT*dT*d[5mC]*dA*dG*dA*dT*dT*dT*dA*kG*eG*kA*eT*kG; antisense) [Compound 1198419]
- YAP1 (% UTC) [5]: 78 % UTC

Substance: 1198596 (antisense k[5mC]*kT*k[5mC]*dT*dT*dA*dT*dA*dT*dG*dG*dT*kT*kT*kT*eG) [Compound 1198596]
- YAP1 (% UT) [3]: 16 % UT

Substance: 1200845 (k[5mC]*kA*kA*d[5mC]*dT*mC*dT*dT*dA*dT*dA*dT*dG*kG*kT*kT; antisense) [Compound 1200845]
- YAP1 (% UT) [2]: 100 % UT

Substance: 1074461 (kG*kA*kA*dA*dT*dT*dG*dT*d[5mC]*dT*d[5mC]*dA*dT*kG*k[5mC]*k[5mC]) [Compound 1074461]
- YAP1 (% UTC) [5]: 7 % UTC
- YAP1 (% UTC) [7]: 9 % UTC
- YAP1 (% UTC) [9]: 12 % UTC
- YAP1 (% UTC) [1]: 11 % UTC
- YAP1 (% UTC) [4]: 11 % UTC
- YAP1 (% UTC) [10]: 7 % UTC
- YAP1 (% UTC) [6]: 9 % UTC
- YAP1 (% UT) [11]: 14 % UT
- YAP1 (% UT) [13]: 20 % UT
- YAP1 (% UT) [14]: 10 % UT
- YAP1 (% UT) [3]: 16 % UT
- YAP1 (% UT) [12]: 5 % UT
- YAP1 (% UT) [2]: 15 % UT
- YAP1 (% UT) [8]: 5 % UT

Substance: 1197212 (antisense kT*kT*kT*dA*dT*dG*dT*dA*dA*dT*dA*dT*dT*kG*k[5mC]*kA) [Compound 1197212]
- YAP1 (% UT) [8]: 55 % UT

Substance: 1095510 (antisense k[5mC]*kT*dG*dA*dG*dG*dT*dA*dT*dA*dA*k[5mC]*dT*kG*dG*kG) [Compound 1095510]
- YAP1 (% UTC) [6]: 35 % UTC

Substance: 1198920 (kA*kA*dG*d[5mC]*dA*d[5mC]*dT*dT*dT*dT*dA*k[5mC]*dA*kT*dT*kA; antisense) [Compound 1198920]
- YAP1 (% UTC) [6]: 54 % UTC

Substance: 1198199 (kA*kT*dT*dG*dT*d[5mC]*dT*d[5mC]*dA*dT*dG*e[5mC]*e[5mC]*eT*kT*kA; antisense) [Compound 1198199]
- YAP1 (% UTC) [1]: 38 % UTC

Substance: 1197195 (antisense kT*kT*kT*dA*dG*dG*dA*dT*dG*d[5mC]*dA*dT*dG*kG*kT*kT) [Compound 1197195]
- YAP1 (% UT) [8]: 38 % UT
